Active and inactive are the calls of the source. The rule behind the calls is not given here.
Assays:
[1] = Half life in Wistar rat at 3 mg/kg, po; type: ADME, organism-based; details: in vivo
[2] = Clearance in dog at 0.5 mg/kg, iv; type: ADME, organism-based, Canis lupus familiaris; details: in vivo
[3] = Cmax in Wistar rat at 100 mg/kg, po; type: ADME, organism-based; set-up: dose 100 mg/kg, route oral; details: in vivo
Rattus norvegicus = test: In-vivo agonist activity at FXR in orally dosed Han Wistar rat assessed as upregulation of SHP mRNA level in liver administered via oral gavage once daily for 14 days measured post last dose by qRT-PCR analysis; type: functional, organism-based
Mus musculus = organism: Mus musculus; test: Anti Steato-hepatitic activity in C57BL/6J mouse STAM model assessed as change in Nr0b2 gene level in liver; type: functional, organism-based
[4] = biological target: T1, Nuclear receptor subfamily 1 group I member 2 (Homo sapiens, UniProt O75469); test: Agonist activity at PXR (unknown origin) incubated for 2 hrs by TR-FRET assay
T1 sequence (O75469 whole entry): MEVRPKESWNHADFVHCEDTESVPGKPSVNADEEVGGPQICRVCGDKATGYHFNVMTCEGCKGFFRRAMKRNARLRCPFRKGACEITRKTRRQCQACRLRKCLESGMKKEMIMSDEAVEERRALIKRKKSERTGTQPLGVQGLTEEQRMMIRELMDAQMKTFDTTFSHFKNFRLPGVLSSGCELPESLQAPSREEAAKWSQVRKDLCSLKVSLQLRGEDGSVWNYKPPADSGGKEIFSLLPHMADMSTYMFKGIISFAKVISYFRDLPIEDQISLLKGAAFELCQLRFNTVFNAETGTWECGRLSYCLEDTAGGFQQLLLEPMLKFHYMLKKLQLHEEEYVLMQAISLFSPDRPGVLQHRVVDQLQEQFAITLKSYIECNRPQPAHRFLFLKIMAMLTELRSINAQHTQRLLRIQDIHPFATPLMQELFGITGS

[5] = biological target: T2, Bile acid receptor (Rattus norvegicus) (UniProt Q62735); test: Agonist activity at FXR in rat primary hepatocytes assessed as increase in SHP mRNA level incubated for 24 hrs by qRT-PCR analysis relative to tropifexor; type: cell-based
T2 sequence (whole entry): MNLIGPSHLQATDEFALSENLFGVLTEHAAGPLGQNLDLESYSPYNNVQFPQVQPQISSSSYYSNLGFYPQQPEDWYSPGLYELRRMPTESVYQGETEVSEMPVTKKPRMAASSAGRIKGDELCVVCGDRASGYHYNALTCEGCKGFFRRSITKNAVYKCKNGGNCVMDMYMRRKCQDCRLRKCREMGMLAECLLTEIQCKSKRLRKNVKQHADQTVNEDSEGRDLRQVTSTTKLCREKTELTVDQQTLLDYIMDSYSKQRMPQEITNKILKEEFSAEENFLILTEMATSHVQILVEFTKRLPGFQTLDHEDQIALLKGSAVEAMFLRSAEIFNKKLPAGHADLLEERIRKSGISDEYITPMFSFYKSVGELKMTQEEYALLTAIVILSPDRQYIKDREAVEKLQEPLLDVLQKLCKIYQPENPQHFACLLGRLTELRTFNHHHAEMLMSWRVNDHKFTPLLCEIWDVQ

Estrogen receptor = biological target: T3, Estrogen receptor (Homo sapiens, UniProt P03372); test: Agonist activity at GAL4-fused ERalpha (unknown origin) expressed in HEK293T cells incubated for 24 by BrightGlo reagent based assay; type: cell-based
T3 sequence (P03372 whole entry): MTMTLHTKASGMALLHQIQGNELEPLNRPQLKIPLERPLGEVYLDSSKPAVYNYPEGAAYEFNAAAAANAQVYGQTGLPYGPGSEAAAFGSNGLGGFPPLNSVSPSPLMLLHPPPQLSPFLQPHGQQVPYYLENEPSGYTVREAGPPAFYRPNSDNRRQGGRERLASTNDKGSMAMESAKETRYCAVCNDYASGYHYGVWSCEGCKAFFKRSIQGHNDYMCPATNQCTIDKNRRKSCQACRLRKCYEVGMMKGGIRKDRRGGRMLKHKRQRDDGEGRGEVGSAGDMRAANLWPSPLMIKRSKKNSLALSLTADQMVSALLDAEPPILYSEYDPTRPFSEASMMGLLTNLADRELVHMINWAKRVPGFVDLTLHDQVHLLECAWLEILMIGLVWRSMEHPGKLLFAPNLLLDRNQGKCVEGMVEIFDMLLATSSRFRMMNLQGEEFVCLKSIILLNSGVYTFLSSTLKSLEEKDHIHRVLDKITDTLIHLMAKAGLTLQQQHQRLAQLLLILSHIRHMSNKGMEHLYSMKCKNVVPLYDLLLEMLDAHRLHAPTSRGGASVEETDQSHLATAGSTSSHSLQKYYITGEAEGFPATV

[6] = AUC in Wistar rat liver at 10 mg/kg, po; type: ADME, organism-based
[7] = Volume of distribution at steady state in Wistar rat at 3 mg/kg, iv; type: ADME, organism-based; details: in vivo, read-out: Vdss
Progesterone receptor = biological target: T4, Progesterone receptor (Homo sapiens, UniProt P06401); test: Agonist activity at Progesterone receptor (unknown origin) incubated for 2 hrs by TR-FRET assay
T4 sequence (P06401 whole entry): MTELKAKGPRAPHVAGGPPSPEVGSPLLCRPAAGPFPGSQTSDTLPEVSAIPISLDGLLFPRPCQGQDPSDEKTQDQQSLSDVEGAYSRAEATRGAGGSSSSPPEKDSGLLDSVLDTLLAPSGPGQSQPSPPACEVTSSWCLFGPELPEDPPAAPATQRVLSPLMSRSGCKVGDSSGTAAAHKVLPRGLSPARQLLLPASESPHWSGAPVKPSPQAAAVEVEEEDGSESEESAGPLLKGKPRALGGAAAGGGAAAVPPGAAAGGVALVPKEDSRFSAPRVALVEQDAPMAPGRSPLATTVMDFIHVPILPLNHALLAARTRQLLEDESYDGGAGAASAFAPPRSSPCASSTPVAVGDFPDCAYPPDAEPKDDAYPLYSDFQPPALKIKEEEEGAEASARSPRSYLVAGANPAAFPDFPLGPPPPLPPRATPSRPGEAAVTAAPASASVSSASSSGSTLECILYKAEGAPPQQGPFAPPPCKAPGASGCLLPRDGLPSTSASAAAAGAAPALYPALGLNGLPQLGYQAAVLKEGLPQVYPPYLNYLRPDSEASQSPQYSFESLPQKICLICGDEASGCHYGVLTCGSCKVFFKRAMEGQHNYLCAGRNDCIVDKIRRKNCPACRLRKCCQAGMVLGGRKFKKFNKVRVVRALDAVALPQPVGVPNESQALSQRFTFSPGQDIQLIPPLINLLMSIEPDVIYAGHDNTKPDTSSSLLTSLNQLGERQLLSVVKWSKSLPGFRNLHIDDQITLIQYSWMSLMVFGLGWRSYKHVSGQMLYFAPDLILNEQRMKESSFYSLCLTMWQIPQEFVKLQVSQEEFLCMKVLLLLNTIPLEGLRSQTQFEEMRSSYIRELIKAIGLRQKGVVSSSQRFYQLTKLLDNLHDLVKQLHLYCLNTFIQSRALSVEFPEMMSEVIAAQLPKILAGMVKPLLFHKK

[8] = AUC in Wistar rat plasma at 10 mg/kg, po; type: ADME, organism-based
[9] = Half life in Wistar rat at 10 mg/kg, po; type: ADME, organism-based; details: in vivo

Cn1nc(C(=O)N(Cc2ccccc2)Cc2ccc(C(=O)O)cc2)c2c1-c1cc(Cl)ccc1OC2 [NIDUFEXOR]
half-life [1]: 3.9 h
clearance [2]: 3.6 mL/min/kg
Cmax [3]: 80.9 µM
Activity (Rattus norvegicus): Dose-dependent effect
Activity (Mus musculus): Active
EC50 [4]: > 30 µM
Activity [5]: 65%
EC50 (Estrogen receptor): > 10 µM
AUC [6]: 36.7 µM·h
Vd [7]: 0.8 L/kg
EC50 (Progesterone receptor): > 30 µM
AUC [8]: 24.5 µM·h
half-life [9]: 5.7 h

— ChEMBL document CHEMBL4402557, “Nidufexor (LMB763), a Novel FXR Modulator for the Treatment of Nonalcoholic Steatohepatitis” (J Med Chem, 2020)
